Where “and” joins values, the source holds several entries; their conditions need not be identical. Equal values may be shown once.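 In this assay, cells in 96-well plates receive the compound at five concentrations for 48 hours. Endpoints are linearly interpolated between the surrounding concentrations. Abbreviation: GI50, concentration required for 50% inhibition of growth. Definition used: TGI = concentration required for complete inhibition of growth.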
Tests used:
Experiment in all cases: NCI tumour cell line growth inhibition, 48 h
RXF 393 renal = tested on: RXF 393 renal
HCT-116 colon = tested on: HCT-116 colon
SW-620 colon = tested on: SW-620 colon
LOX IMVI melanoma = tested on: LOX IMVI melanoma
ACHN renal = tested on: ACHN renal
K-562 leukemia = tested on: K-562 leukemia
M19-MEL melanoma = tested on: M19-MEL melanoma
SF-268 CNS = tested on: SF-268 CNS
EKVX NSCLC = tested on: EKVX NSCLC
SNB-75 CNS = tested on: SNB-75 CNS
OVCAR-5 ovarian = tested on: OVCAR-5 ovarian
HOP-18 NSCLC = tested on: HOP-18 NSCLC
SNB-78 CNS = tested on: SNB-78 CNS
COLO 205 colon = tested on: COLO 205 colon
KM12 colon = tested on: KM12 colon
U251 CNS = tested on: U251 CNS
OVCAR-4 ovarian = tested on: OVCAR-4 ovarian
RPMI-8226 leukemia = tested on: RPMI-8226 leukemia
DLD-1 colon = tested on: DLD-1 colon
HL-60(TB) leukemia = tested on: HL-60(TB) leukemia
SN12C renal = tested on: SN12C renal
IGROV1 ovarian = tested on: IGROV1 ovarian
M14 melanoma = tested on: M14 melanoma
A498 renal = tested on: A498 renal
NCI-H226 lung = tested on: NCI-H226 lung
SF-539 CNS = tested on: SF-539 CNS
SF-295 CNS = tested on: SF-295 CNS
KM20L2 colon = tested on: KM20L2 colon
SK-MEL-5 melanoma = tested on: SK-MEL-5 melanoma
TK-10 renal = tested on: TK-10 renal
A549 NSCLC = tested on: A549 NSCLC
MOLT-4 leukemia = tested on: MOLT-4 leukemia
HOP-92 NSCLC = tested on: HOP-92 NSCLC
XF 498 CNS = tested on: XF 498 CNS
786-0 renal = tested on: 786-0 renal
HCT-15 colon = tested on: HCT-15 colon
UACC-62 melanoma = tested on: UACC-62 melanoma
UACC-257 melanoma = tested on: UACC-257 melanoma
NCI-H23 lung = tested on: NCI-H23 lung
CCRF-CEM leukemia = tested on: CCRF-CEM leukemia
RXF-631 renal = tested on: RXF-631 renal
CAKI-1 renal = tested on: CAKI-1 renal
SK-MEL-28 melanoma = tested on: SK-MEL-28 melanoma

SMILES: CCOc1ccc(/C=C\c2cc(OC)c(OC)c(OC)c2)cc1
- TGI (RXF 393 renal): 0.000904 µM
- TGI (HCT-116 colon): 0.152 µM
- TGI (SW-620 colon): > 100 µM
- TGI (LOX IMVI melanoma): > 100 µM
- TGI (ACHN renal): > 100 µM
- TGI (K-562 leukemia): > 100 µM
- TGI (M19-MEL melanoma): > 100 µM
- TGI (SF-268 CNS): > 100 µM
- TGI (EKVX NSCLC): > 100 µM
- TGI (SNB-75 CNS): 0.000226 µM
- TGI (OVCAR-5 ovarian): 61.7 µM
- GI50 (HOP-18 NSCLC): > 100 µM
- TGI (HOP-18 NSCLC): > 100 µM
- TGI (SNB-78 CNS): > 100 µM
- TGI (COLO 205 colon): 0.399 µM
- GI50 (KM12 colon): 0.0172 µM
- TGI (KM12 colon): 0.185 µM
- TGI (U251 CNS): 0.0132 µM and 0.0341 µM
- GI50 (OVCAR-4 ovarian): 0.403 µM
- TGI (OVCAR-4 ovarian): > 100 µM
- TGI (RPMI-8226 leukemia): 5.03 µM
- GI50 (DLD-1 colon): 0.0292 µM
- TGI (DLD-1 colon): > 100 µM
- TGI (HL-60(TB) leukemia): 0.00354 µM and 0.0155 µM
- TGI (SN12C renal): 60.5 µM
- GI50 (IGROV1 ovarian): 0.0317 µM
- TGI (IGROV1 ovarian): > 100 µM
- TGI (M14 melanoma): > 100 µM
- TGI (A498 renal): 0.0248 µM
- TGI (NCI-H226 lung): 0.0223 µM and 0.024 µM
- TGI (SF-539 CNS): 0.000685 µM
- TGI (SF-295 CNS): 0.000209 µM
- TGI (KM20L2 colon): 0.00113 µM
- TGI (SK-MEL-5 melanoma): 0.117 µM
- TGI (TK-10 renal): > 100 µM
- TGI (A549 NSCLC): > 100 µM
- TGI (MOLT-4 leukemia): 17.8 µM
- TGI (HOP-92 NSCLC): 0.0512 µM
- TGI (XF 498 CNS): 0.0917 µM
- TGI (786-0 renal): > 100 µM
- GI50 (HCT-15 colon): 0.0322 µM
- TGI (HCT-15 colon): 0.286 µM
- TGI (UACC-62 melanoma): > 100 µM
- TGI (UACC-257 melanoma): 98.6 µM
- TGI (NCI-H23 lung): 0.111 µM
- TGI (CCRF-CEM leukemia): 91.3 µM
- TGI (RXF-631 renal): > 100 µM
- TGI (CAKI-1 renal): 18.6 µM
- TGI (SK-MEL-28 melanoma): > 100 µM
